“Also recorded” adds a separate entry of the source.
Experiments:
[1] = system: A549 human lung and A2780 human ovarian cancer cell lines; assay: Cytotoxicity in A549 and A2780 cell lines, result not split by cell line; assay type: cell-based
Experimental: (§1) Experimental: Cytotoxicity Towards A2780 and A549 Human Cancer Cells. After plating, human ovarian A2780 cancer cells were treated with Os^II complexes on day 3, and human lung A549 cancer cells on day 2, at concentrations ranging from 2 μM to 50 μM. Solutions of the Os^II complexes were made up in 0.125% DMSO to assist dissolution. Cells were exposed to the complexes for 24 h, washed, supplied with fresh medium, allowed to grow for three doubling times (72 h), and then the protein content measured (proportional to cell survival) using the sulforhodamine B (SRB) assay.
(§2) Cancer Cell Cytotoxicity. After plating, human ovarian A2780 cancer cells were treated with OsII complexes on day 3, and human lung A549 cancer cells on day 2, at concentrations ranging from 0.1 μM to 100 μM. Solutions of the OsII complexes were made up in 0.125% DMSO to assist dissolution. Cells were exposed to the complexes for 24 h, washed, supplied with fresh medium, allowed to grow for three doubling times (72 h), and then the protein content measured (proportional to cell survival) using the sulforhodamine B (SRB) assay.10

[2] = system: human ovarian A2780 cancer cells; assay: Cytotoxicity towards A2780 cells, sulforhodamine B (SRB) assay; assay type: cell-based; settings: Table 7; 24 h exposure, 72 h growth, 2-50 μM; read-out: IC50/μM A2780
Experimental: as §1, §2

[3] = Stability in isotonic saline solutions; assay type: physicochemical; settings: after 16 days of storage in the dark
Experimental: Stability tests on AFAP42, 64, 62, 05, 51 and 65 in isotonic saline solutions were also performed.

[4] = system: human lung A549 cancer cells; assay: Cytotoxicity towards A549 cells, sulforhodamine B (SRB) assay; assay type: cell-based; settings: Table 7; 24 h exposure, 72 h growth, 2-50 μM; read-out: IC50/μM A549
Experimental: as §1, §2

[5] = system: human ovarian A2780 cancer cells; settings: Peacock et al, J. Am. Chem. Soc. 2006; said to be erroneous; cited from earlier work
[6] = Acidity (pKa / pKa*) of coordinated water, 1H NMR pH* titration; settings: aqua adduct
Description: pKa* calculations. […] The chemical shifts of the arene ring protons were plotted against pH*. The pH* titration curves were fitted to the Henderson-Hasselbalch equation, with the assumption that the observed chemical shifts are weighted averages according to the populations of the protonated and deprotonated species.

[7] = extreme conditions of heating, sonicating, exposure to air and extreme sunlight
Experimental: Samples are prepared for testing by initially dissolving in 5% DMSO and subsequently diluting down.

[8] = Hydrolysis (aquation) kinetics followed by 1H NMR; assay type: physicochemical; settings: osmium complex versus equivalent ruthenium complex
Experimental: Hydrolysis. […] The rate of hydrolysis was determined by fitting plots of concentrations (determined by ^1H NMR peak integrals) versus time to a pseudo first-order equation using ORIGIN version 5.0 (Microcal Software Ltd.).

[9] = system: A2780cisR (with acquired cisplatin resistance); settings: MTT, 72 hours exposure, 0 to 128 μM
Experimental: All experiments were made in quadruplicate.
All experiments were performed in quadruplicate.

Row | SMILES | Cytotoxicity, A549 and A2780 [1] | IC50 [2] [µM] | Stability of isotonic saline solutions [3] | IC50 [4] [µM] | Activity toward A2780 cells as previously reported [5] | pKa of water coordinated on hydrolysis (aqua adduct of complex) [6] | Stability of solutions in DMSO-d6 [7] | Aqueous solubility (Aqueous solubility) | Hydrolysis slower than the equivalent ruthenium complex [8] [times] | Activity in cisplatin resistant A2780cisR compared with A2780 [9]
1 | F[B-](F)(F)F.[Cl][Os-]1[NH2+]CC[NH2+]1.c1ccc(-c2ccccc2)cc1 [AFAP51, [(η^6-bip)Os(en)Cl]BF4] | does show cytotoxicity | 7.6 | stable | 10 | inactive | 6.34 | can decompose |  |  | 
2 | Cc1ccc(C(C)C)cc1.Cc1ccc2c(c1)[S][Os-]([Cl])[S]2.[Na+] (centres unmarked) [AFAP40, [(η^6-p-cym)Os(S2C7H6)Cl]Na] | showed activity; also recorded: Shows cytotoxicity |  |  |  |  |  |  | very poor |  | 
3 | [Cl][Os-]1[NH2+]CC[NH2+]1.c1ccc(-c2ccccc2)cc1 [[(η^6-bip)Os(en)Cl]^+] |  |  |  |  |  |  |  |  | 40 | even greater activity in the cisplatin resistant cell line

— patent publication US20100291236A1, “OSMIUM COMPOUNDS” (THE UNIVERSITY OF WARWICK, priority 2006, published 2010)
